Laboratory results as given in patent US5278150A, “2-hydrazoadenosines and their utility for the treatmeat of vascular conditions” (Whitby Research, Inc., priority 1992, dated 1994).
Where two headings read alike, the source gives them in different places.

Tests used:
[1] = biological target: A2 adenosine receptor (Cavia porcellus, UniProt P46616)
Method: (§1) The perfusion buffer consisted of 120 mM NaCl, 27 mM NaHCO3, 3.7 mM KCl, 1.3 mM KH2 PO4, 0.64 mM MgSO4, 1.3 mM CaCl2, 2 mM pyruvate, and 5 mM glucose. […] Continuous drainage of the left ventricle by means of a catheter inserted across the mitral valve insured that this cardiac chamber did no external work. An electrode in the right ventricle monitored the electrocardiogram. Timed collections of cardiac effluent in a graduated cylinder during the steady-state phase of the flow responses to compound administration measured total coronary flow, which was also monitored by an in-line electromagnetic flowmeter in the aortic perfusion cannula. The quotient of the ratio of compound infusion (mol/min) divided by coronary flow rate (L/min) equals agonist concentration in the perfusate. […] The quotient of the EC50 of stimulus-QRS prolongation divided by the EC50 of coronary vasodilation provided an index of selectivity.

[2] = biological target: T1, A1 adenosine receptor (Cavia porcellus, UniProt P47745)
T1 sequence (P47745 1-326): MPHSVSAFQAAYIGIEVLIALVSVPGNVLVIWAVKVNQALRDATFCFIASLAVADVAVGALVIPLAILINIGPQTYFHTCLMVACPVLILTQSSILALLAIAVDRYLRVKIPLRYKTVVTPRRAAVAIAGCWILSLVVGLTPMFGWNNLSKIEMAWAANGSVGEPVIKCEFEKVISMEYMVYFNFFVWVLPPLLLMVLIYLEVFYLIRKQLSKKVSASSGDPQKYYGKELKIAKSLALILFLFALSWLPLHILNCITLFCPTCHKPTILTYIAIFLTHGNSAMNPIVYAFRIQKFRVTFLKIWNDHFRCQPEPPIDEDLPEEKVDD
Method: as §1

[3] = biological target: A2 adenosine receptor; conditions: read-out: EC50 for coronary vasodilation; coronary arteries (vasodilation); cited from earlier work
[4] = biological target: T1, A1 adenosine receptor; conditions: BIOASSAY RESULTS table
Method: as §1

[5] = in words; cited from earlier work
[6] = system: guinea pig heart; assay: Second degree heart block (Wenckebach point), Langendorff guinea pig heart; conditions: for minimal effective concentration: Cavia porcellus, read-out: Wenckbach
Method: An electrode in the right ventricle monitored the electrocardiogram. […] The rate of agonist infusion was increased stepwise at intervals of 3-4 minutes until the appearance of second degree heart block (Wenckebach point).

[7] = system: A2 adenosine receptor
Method: as §1

[8] = -LOG EC50 A2, BIOASSAY RESULTS table, A2
[9] = -LOG EC50 A1, BIOASSAY RESULTS table, A1
[10] = concentration at appearance of second degree heart block
[11] = EC50 -CF, coronary vasodilation, perfused guinea pig heart paced at 260 beats/min
[12] = EC50-SQPR divided by EC50-CF, >1 indicates selectivity for A2 adenosine receptor
[13] = EC50 -SQPR, prolongation of stimulus-QRS interval by 50% of maximum response, perfused guinea pig heart

Sequence of A2 adenosine receptor (Cavia porcellus, UniProt P46616) (P46616 whole entry): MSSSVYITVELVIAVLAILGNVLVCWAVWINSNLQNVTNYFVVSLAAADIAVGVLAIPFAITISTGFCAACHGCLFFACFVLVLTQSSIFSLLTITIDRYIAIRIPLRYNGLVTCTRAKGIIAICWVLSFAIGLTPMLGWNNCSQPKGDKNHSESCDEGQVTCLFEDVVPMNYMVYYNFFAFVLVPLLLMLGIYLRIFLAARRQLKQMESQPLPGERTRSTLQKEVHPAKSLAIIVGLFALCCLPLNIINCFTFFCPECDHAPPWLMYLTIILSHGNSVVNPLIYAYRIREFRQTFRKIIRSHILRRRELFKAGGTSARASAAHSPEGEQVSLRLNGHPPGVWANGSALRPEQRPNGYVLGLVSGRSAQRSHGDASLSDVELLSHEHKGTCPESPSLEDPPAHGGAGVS

| SMILES | EC50 [1, 8] [µM] | EC50 [2, 9] [µM] | minimal effective concentration [6, 10] [µM] | EC50 [1, 11] [µM] | Selectivity (SQPR/CF) [7, 12] | also measured |
| --- | --- | --- | --- | --- | --- | --- |
| CCCCCC=NNc1nc(N)c2ncn([C@@H]3O[C@H](CO)[C@@H](O)[C@H]3O)c2n1 [1-Pent, H] | 0.00102 | 38.9 |  |  |  |  |
| Nc1nc(OCCC2CCCCC2)nc2c1ncn2[C@@H]1O[C@H](CO)[C@@H](O)[C@H]1O [2-(2-cyclohexylethoxy)adenosine] |  |  |  |  |  | EC50 [3]: 0.001 µM |
| Nc1nc(N)c2ncn([C@@H]3O[C@H](CO)[C@@H](O)[C@H]3O)c2n1 [2-Amino-adenosine, reference compound] | 0.224 |  |  |  |  | EC50 [2]: 11.2 µM |
| Nc1nc(NN=CCCC2CCCCC2)nc2c1ncn2[C@@H]1O[C@H](CO)[C@@H](O)[C@H]1O [2-C Hexylethyl, H] |  | 9.77 |  |  |  |  |
| Nc1nc(NN=CCCCC2CCCCC2)nc2c1ncn2[C@@H]1O[C@H](CO)[C@@H](O)[C@H]1O [3-C Hexylpropyl, H] | 0.00178 | 66.1 |  |  |  |  |
| Nc1nc(NN=CC2CC=CCC2)nc2c1ncn2[C@@H]1O[C@H](CO)[C@@H](O)[C@H]1O (some centres unmarked) [3-Cyclo-hexenyl, H] |  |  |  |  |  | -LOG EC50 A1 [4]: 4.86 |
| CC(C)CCC=NNc1nc(N)c2ncn([C@@H]3O[C@H](CO)[C@@H](O)[C@H]3O)c2n1 [3-Me-1-Bu, H] | 0.000468 | 20.9 |  |  |  |  |
| Nc1nc(NN=CCCCc2ccccc2)nc2c1ncn2[C@@H]1O[C@H](CO)[C@@H](O)[C@H]1O [3-Ph Propyl, H] | 0.00195 | 66.1 |  |  |  |  |
| Nc1ncnc2c1ncn2[C@@H]1O[C@H](CO)[C@@H](O)[C@H]1O [Adenosine, 9-β-D-ribofuranosyl-9H-purin-6-amine] |  |  |  |  |  | cardiovascular activity [5]: hypotensive and bradycardia activity |
| Nc1nc(NN=Cc2ccc(Cl)cc2)nc2c1ncn2[C@@H]1O[C@H](CO)[C@@H](O)[C@H]1O [Example 1, 6-amino-2-{2-[(4-chlorophenyl)methylene]diazanyl}-9-(β-D-ribofuranosyl)-9H-purine] |  |  | 30.4 |  |  |  |
| Nc1nc(NN=Cc2ccc(F)cc2)nc2c1ncn2[C@@H]1O[C@H](CO)[C@@H](O)[C@H]1O [Example 2, 6-amino-2-{2-[(4-fluorophenyl)methylene]diazanyl}-9-(β-D-ribofuranosyl)-9H-purine] | 0.00245 |  | 30.9 | 0.0025 | 8,500 | EC50 [2, 13]: 12.6 µM |
| Nc1nc(NN=CC2CCCCC2)nc2c1ncn2[C@@H]1O[C@H](CO)[C@@H](O)[C@H]1O [Example 3, 6-amino-2-{2-[(cyclohexyl)methylene]diazanyl}-9-(β-D-ribofuranosyl)-9H-purine] | 0.000257 | 3.55 |  | 0.0003 |  | Selectivity (SQPR/CF) [7]: 16,472; EC50 [2, 13]: 3.55 µM; minimal effective concentration [6]: 5.92 µM |
| Nc1nc(NN=Cc2ccc3ccccc3c2)nc2c1ncn2[C@@H]1O[C@H](CO)[C@@H](O)[C@H]1O [Example 4, 6-amino-2-{2-[(2-naphthyl)methylene]diazanyl}-9-(β-D-ribofuranosyl)-9H-purine] | 0.00417 | 2.63 | 10.1 | 0.0042 | 767 |  |
| Nc1nc(NN=Cc2cccnc2)nc2c1ncn2[C@@H]1O[C@H](CO)[C@@H](O)[C@H]1O [Example 5, 6-amino-2-{2-[(3-pyridyl)methylene]diazanyl}-9-(β-D-ribofuranosyl)-9H-purine] |  |  | 63.5 | 0.015 | 2,657 |  |
| Nc1nc(NN=Cc2ccncc2)nc2c1ncn2[C@@H]1O[C@H](CO)[C@@H](O)[C@H]1O [Example 6, 6-amino-2-{2-[(4-pyridyl)methylene]diazanyl}-9-(β-D-ribofuranosyl)-9H-purine] |  |  | 68 | 0.011 | 2,817 |  |
| Nc1nc(NN=Cc2ccccc2)nc2c1ncn2[C@@H]1O[C@H](CO)[C@@H](O)[C@H]1O [Example 7, 6-amino-2-{2-(phenylmethylene)diazanyl}-9-(β-D-ribofuranosyl)-9H-purine] | 0.00229 | 83.2 | 216 | 0.0023 | 43,347 |  |
| NNc1nc(N)c2ncn([C@@H]3O[C@H](CO)[C@@H](O)[C@H]3O)c2n1 [Example 8, 6-amino-2-diazanyl-9-(β-D-ribofuranosyl)-9H-purine, reference compound] | 0.0794 | 20 | 18.2 | 0.0804 | 301 | EC50 [2, 13]: 14.6 µM |
| Cc1ccc(C=NNc2nc(N)c3ncn([C@@H]4O[C@H](CO)[C@@H](O)[C@H]4O)c3n2)cc1 [Example 9, 6-amino-2-{2-[(4-methylphenyl)methylene]diazanyl}-9-(β-D-ribofuranosyl)-9H-purine] |  | 39.8 |  |  |  | Wenckbach ([6]; second degree heart block, unit printed nmol (Example 9)): 103,514 nmol |
| CC(=NNc1nc(N)c2ncn([C@@H]3O[C@H](CO)[C@@H](O)[C@H]3O)c2n1)c1ccc(F)cc1 [Example 10, 6-amino-2-{2-[1-(4-fluorophenyl)ethylidene]diazanyl}-9-(β-D-ribofuranosyl)-9H-purine] | 0.00324 | 4.17 | 7.3 | 0.0032 | 1,822 |  |
| COc1ccc(C=NNc2nc(N)c3ncn([C@@H]4O[C@H](CO)[C@@H](O)[C@H]4O)c3n2)cc1 [Example 11, 6-amino-2-{2-[(4-methoxyphenyl)methylene]diazanyl}-9-(β-D-ribofuranosyl)-9H-purine] |  |  | 50 |  |  |  |
| CC(=NNc1nc(N)c2ncn([C@@H]3O[C@H](CO)[C@@H](O)[C@H]3O)c2n1)c1ccccc1 [Example 12, 6-amino-2-{2-[1-(phenyl)ethylidene]diazanyl}-9-(β-D-ribofuranosyl)-9H-purine] |  |  | 11 | 0.013 | 380 |  |
| Nc1nc(NN=Cc2ccccn2)nc2c1ncn2[C@@H]1O[C@H](CO)[C@@H](O)[C@H]1O [Example 13, 6-amino-2-{2-[(2-pyridyl)methylene]diazanyl}-9-(β-D-ribofuranosyl)-9H-purine] |  |  |  | 0.0057 | 42,000 | minimal effective concentration ([6]; second degree heart block, unit inferred): 110 µM |
| Nc1nc(NN=Cc2cccc3ccccc23)nc2c1ncn2[C@@H]1O[C@H](CO)[C@@H](O)[C@H]1O [Example 14, 6-amino-2-{2-[(1-naphthyl)methylene]diazanyl}-9-(β-D-ribofuranosyl)-9H-purine] |  |  | 2 | 0.0095 | 110 |  |
| Nc1nc(NN=Cc2cccs2)nc2c1ncn2[C@@H]1O[C@H](CO)[C@@H](O)[C@H]1O [Example 15, 6-amino-2-{2-[(2-thienyl)methylene]diazanyl}-9-(β-D-ribofuranosyl)-9H-purine] |  |  | 93 | 0.014 | 4400 |  |
| Cc1cccc(C=NNc2nc(N)c3ncn([C@@H]4O[C@H](CO)[C@@H](O)[C@H]4O)c3n2)c1 [Example 16, 6-amino-2-{2-[(3-methylphenyl)methylene]diazanyl}-9-(β-D-ribofuranosyl)-9H-purine] |  |  |  | 0.0044 |  | Selectivity (SQPR/CF) [7]: 4700; minimal effective concentration [6]: 47 µM |
